Results taken from patent US20090209536A1, “AMINOQUINAZOLINE CANNABINOID RECEPTOR MODULATORS FOR TREATMENT OF DISEASE” (KALYPSYS, INC., priority 2007, published 2009).
Where two headings read alike, the source gives them in different places. Blank lines part the entries; values can stand above or below the compound they belong to.

How the values were obtained:
[1] = molecular target: T1, human cannabinoid receptor type 2 (Homo sapiens, UniProt P34972); assay: Human CB2 Radioligand Binding Assay; settings: membranes from stably transfected CHO CB2 cells
T1 construct: expressed in transfected cells; membrane preparation
T1 sequence (P34972 whole entry): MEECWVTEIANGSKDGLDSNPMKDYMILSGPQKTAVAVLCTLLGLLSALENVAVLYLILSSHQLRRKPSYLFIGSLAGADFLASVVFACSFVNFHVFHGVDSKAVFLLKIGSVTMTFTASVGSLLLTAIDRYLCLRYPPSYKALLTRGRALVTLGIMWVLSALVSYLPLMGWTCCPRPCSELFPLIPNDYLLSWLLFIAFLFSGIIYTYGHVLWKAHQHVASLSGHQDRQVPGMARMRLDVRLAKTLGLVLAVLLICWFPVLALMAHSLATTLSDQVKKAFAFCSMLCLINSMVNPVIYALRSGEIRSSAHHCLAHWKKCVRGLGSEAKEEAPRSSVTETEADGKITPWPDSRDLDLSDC
Outline: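 Test compounds (10 uM final, or dose-response) competed with [3H]CP-55,940, used at the Kd determined per membrane lot, for binding to stable human CB2-CHO membranes over 90 min at 30° C in pH 7.4 Tris/EGTA/MgCl2/BSA buffer. GF/C filtration then scintillation counting; 100 nM CP-55,940 defined 100% efficacy.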

[2] = molecular target: T2, human cannabinoid receptor type 1 (Homo sapiens, UniProt P21554); assay: Human CB1 Radioligand Binding Assay (basis of selectivity, CB2 vs. CB1); settings: CB1: HEK 293 EBNA cells expressing human CB1; CB2: CHO CB2 membranes
T2 construct: purchased Perkin Elmer RBHCB1M; host or cells: HEK 293 EBNA cells
T2 sequence (P21554 whole entry): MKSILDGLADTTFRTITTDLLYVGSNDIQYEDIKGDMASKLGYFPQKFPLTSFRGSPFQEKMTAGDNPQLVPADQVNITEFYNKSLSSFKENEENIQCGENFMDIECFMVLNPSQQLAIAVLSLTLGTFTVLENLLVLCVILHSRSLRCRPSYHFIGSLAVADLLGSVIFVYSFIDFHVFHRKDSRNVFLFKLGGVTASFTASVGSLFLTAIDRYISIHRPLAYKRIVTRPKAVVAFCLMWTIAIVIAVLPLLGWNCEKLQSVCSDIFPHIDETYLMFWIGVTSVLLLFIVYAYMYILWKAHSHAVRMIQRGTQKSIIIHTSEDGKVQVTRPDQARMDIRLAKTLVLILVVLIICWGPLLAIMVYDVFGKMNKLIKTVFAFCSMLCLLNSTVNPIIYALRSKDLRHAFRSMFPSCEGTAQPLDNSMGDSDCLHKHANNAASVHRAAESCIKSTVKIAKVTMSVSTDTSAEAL
Description: 2. Human CB1 Radioligand Binding Assay
The incubation buffer was composed of 50 mM Tris-HCl pH 7.4, 2.5 mM EDTA, 5 mM MgCl2, 5.0 mg/ml fatty acid free BSA and the wash buffer was composed of 50 mM Tris-HCl pH 7.4, 2.5 mM EDTA, 5 mM MgCl2, 0.5 mg/ml fatty acid free BSA.

[3] = competition with [3H] CP-55,940, read-out: CB2 Ligand Binding Asssay EC50
[4] = CB2 Ligand Binding Asssay EC50, competition with [3H] CP-55,940

SMILES: COc1cc2nc(Nc3ccc(C(C)(C)C)cc3)nc(N3CCCC3)c2cc1OC [Example 298, N-(4-tert-butylphenyl)-6,7-dimethoxy-4-(pyrrolidin-1-yl)quinazolin-2-amine]
- EC50 [1, 3]: > 1000 nM
- Selectivity, CB2 vs. CB1 [2]: − (− indicates ≦ 10−fold)

SMILES: O=S(=O)(NCc1nc(N2CCCC2)c2ccccc2n1)c1ccc2ccccc2c1 [Example 299, N-((4-(Pyrrolidin-1-yl)quinazolin-2-yl)methyl)naphthalene-2-sulfonamide]
- EC50 [1, 3]: > 1000 nM
- Selectivity, CB2 vs. CB1 [2]: + (+ indicates > 10−fold)

SMILES: O=S(=O)(NCc1nc(N2CCOCC2)c2ccccc2n1)c1ccc2ccccc2c1 [Example 301, N-((4-Morpholinoquinazolin-2-yl)methyl)naphthalene-2-sulfonamide]
- EC50 [1, 4]: > 1000 nM
- Selectivity, CB2 vs. CB1 [2]: − (− indicates ≦ 10−fold)

SMILES: O=S(=O)(NCc1nc(Nc2ccccc2)c2ccccc2n1)c1cccc2ccccc12 [Example 302, N-((4-(Phenylamino)quinazolin-2-yl)methyl)naphthalene-1-sulfonamide]
- EC50 [1, 3]: > 1000 nM
- Selectivity, CB2 vs. CB1 [2]: − (− indicates ≦ 10−fold)

SMILES: c1ccc(NCc2nc(Nc3ccccc3)c3ccccc3n2)cc1 [Example 303, N-Phenyl-2-((phenylamino)methyl)quinazolin-4-amine]
- EC50 [1, 3]: > 1000 nM
- Selectivity, CB2 vs. CB1 [2]: − (− indicates ≦ 10−fold)

SMILES: CCOC(=O)N1CCN(c2nc(-c3ccccc3Cl)nc3ccc(C(=O)N(CC)CC)cc23)CC1 [Example 314, Ethyl 4-(2-(2-chlorophenyl)-6-(diethylcarbamoyl)quinazolin-4-yl)piperazine-1-carboxylate]
- EC50 [1, 3]: > 1000 nM
- Selectivity, CB2 vs. CB1 [2]: + (+ indicates > 10−fold)

SMILES: CCN(CC)C(=O)c1ccc2nc(-c3ccccc3Cl)nc(N3CCOCC3)c2c1 [Example 315, 2-(2-Chlorophenyl)-N,N-diethyl-4-morpholinoquinazoline-6-carboxamide]
- EC50 [1, 4]: > 1000 nM
- Selectivity, CB2 vs. CB1 [2]: − (− indicates ≦ 10−fold)

SMILES: CCOC(=O)N1CCN(c2nc(-c3ccccc3Cl)nc3cc(C(=O)OC)ccc23)CC1 [Example 317, Methyl 2-(2-chlorophenyl)-4-(4-(ethoxycarbonyl)piperazin-1-yl)quinazoline-7-carboxylate]
- EC50 [1, 3]: > 1000 nM
- Selectivity, CB2 vs. CB1 [2]: − (− indicates ≦ 10−fold)

SMILES: CCOC(=O)N1CCN(c2nc(-c3ccccc3Cl)nc3cc(C(=O)O)ccc23)CC1 [Example 318, 2-(2-Chlorophenyl)-4-(4-(ethoxycarbonyl)piperazin-1-yl)quinazoline-7-carboxylic acid]
- EC50 [1, 3]: > 1000 nM
- Selectivity, CB2 vs. CB1 [2]: − (− indicates ≦ 10−fold)

SMILES: CCOC(=O)N1CCN(c2nc(-c3ccccc3Cl)nc3cc(C(=O)NC(C)C)ccc23)CC1 [Example 320, Ethyl 4-(2-(2-chlorophenyl)-7-(isopropylcarbamoyl)quinazolin-4-yl)piperazine-1-carboxylate]
- EC50 [1, 3]: > 1000 nM
- Selectivity, CB2 vs. CB1 [2]: − (− indicates ≦ 10−fold)

SMILES: CCOC(=O)N1CCN(c2nc(-c3ccccc3Cl)nc3cc(C(=O)NC)ccc23)CC1 [Example 321, Ethyl 4-(2-(2-chlorophenyl)-7-(methylcarbamoyl)quinazolin-4-yl)piperazine-1-carboxylate]
- EC50 [1, 3]: > 1000 nM
- Selectivity, CB2 vs. CB1 [2]: − (− indicates ≦ 10−fold)

SMILES: COC(=O)c1ccc2c(N3CCN(C(C)=O)CC3)nc(-c3ccccc3Cl)nc2c1 [Example 322, Methyl 4-(4-acetylpiperazin-1-yl)-2-(2-chlorophenyl)quinazoline-7-carboxylate]
- EC50 [1, 4]: > 1000 nM
- Selectivity, CB2 vs. CB1 [2]: − (− indicates ≦ 10−fold)

SMILES: CCN(CC)C(=O)c1ccc2c(N3CCN(C(C)=O)CC3)nc(-c3ccccc3Cl)nc2c1 [Example 323, 4-(4-Acetylpiperazin-1-yl)-2-(2-chlorophenyl)-N,N-diethylquinazoline-7-carboxamide]
- EC50 [1, 3]: > 1000 nM
- Selectivity, CB2 vs. CB1 [2]: − (− indicates ≦ 10−fold)

SMILES: CC(=O)N1CCN(c2nc(-c3ccccc3Cl)nc3cc(C(=O)N4CCCCC4)ccc23)CC1 [Example 324, 1-(4-(2-(2-Chlorophenyl)-7-(piperidine-1-carbonyl)quinazolin-4-yl)piperazin-1-yl)ethanone]
- EC50 [1, 3]: > 1000 nM
- Selectivity, CB2 vs. CB1 [2]: − (− indicates ≦ 10−fold)

More lines, now with the values ahead:

- EC50 [1, 3]: < 1000 nM
- Selectivity, CB2 vs. CB1 [2]: + (+ indicates > 10−fold)
SMILES: CC(C)(C)c1ccc2c(N3CCCC3)nc(Nc3ccccc3)nc2c1 [Example 287, 7-tert-Butyl-N-phenyl-4-(pyrrolidin-1-yl)quinazolin-2-amine]

- EC50 [1, 3]: < 1000 nM
- Selectivity, CB2 vs. CB1 [2]: + (+ indicates > 10−fold)
SMILES: CC(C)(C)c1ccc2c(N3CCCC3)nc(Nc3ccc(F)cc3F)nc2c1 [Example 288, 7-tert-Butyl-N-(2,4-difluorophenyl)-4-(pyrrolidin-1-yl)quinazolin-2-amine]

- EC50 [1, 3]: < 1000 nM
- Selectivity, CB2 vs. CB1 [2]: − (− indicates ≦ 10−fold)
SMILES: CC(C)(C)c1ccc2c(N3CCCC3)nc(Nc3ccc(F)c(F)c3)nc2c1 [Example 289, 7-tert-Butyl-N-(3,4-difluorophenyl)-4-(pyrrolidin-1-yl)quinazolin-2-amine]

- EC50 [1, 3]: < 1000 nM
- Selectivity, CB2 vs. CB1 [2]: + (+ indicates > 10−fold)
SMILES: CC(C)(C)c1ccc2c(N3CCCC3)nc(Nc3cccc(Cl)c3)nc2c1 [Example 290, 7-tert-Butyl-N-(3-chlorophenyl)-4-(pyrrolidin-1-yl)quinazolin-2-amine]

- EC50 [1, 3]: > 1000 nM
- Selectivity, CB2 vs. CB1 [2]: − (− indicates ≦ 10−fold)
SMILES: O=S(=O)(NCc1nc(N2CCOCC2)c2ccccc2n1)c1ccc(Cl)cc1Cl [Example 294, 2,4-Dichloro-N-((4-morpholinoquinazolin-2-yl)methyl)benzenesulfonamide]

- EC50 [1, 3]: > 1000 nM
- Selectivity, CB2 vs. CB1 [2]: − (− indicates ≦ 10−fold)
SMILES: COc1cc2nc(Oc3ccc(C(C)(C)C)cc3)nc(N3CCCC3)c2cc1OC [Example 296, 2-(4-tert-Butylphenoxy)-6,7-dimethoxy-4-(pyrrolidin-1-yl)quinazoline]

- EC50 [1, 3]: > 1000 nM
- Selectivity, CB2 vs. CB1 [2]: − (− indicates ≦ 10−fold)
SMILES: COc1ccc(Oc2nc(N3CCCC3)c3cc(OC)c(OC)cc3n2)cc1 [Example 297, 6,7-Dimethoxy-2-(4-methoxyphenoxy)-4-(pyrrolidin-1-yl)quinazoline]

- EC50 [1, 3]: < 1000 nM
- Selectivity, CB2 vs. CB1 [2]: + (+ indicates > 10−fold)
SMILES: O=S(=O)(NCc1nc(N2CCOCC2)c2ccccc2n1)c1cccc2ccccc12 [Example 300, N-((4-Morpholinoquinazolin-2-yl)methyl)naphthalene-1-sulfonamide]

- EC50 [1, 3]: < 1000 nM
- Selectivity, CB2 vs. CB1 [2]: − (− indicates ≦ 10−fold)
SMILES: CC(C)Nc1nc(CNS(=O)(=O)c2cccc3ccccc23)nc2ccccc12 [Example 304, N-((4-(Isopropylamino)quinazolin-2-yl)methyl)naphthalene-1-sulfonamide]

- EC50 [1, 3]: < 1000 nM
- Selectivity, CB2 vs. CB1 [2]: − (− indicates ≦ 10−fold)
SMILES: O=S(=O)(NCc1nc(NC2CCCC2)c2ccccc2n1)c1cccc2ccccc12 [Example 305, N-((4-(Cyclopentylamino)quinazolin-2-yl)methyl)naphthalene-1-sulfonamide]

- EC50 [1, 3]: < 1000 nM
- Selectivity, CB2 vs. CB1 [2]: − (− indicates ≦ 10−fold)
SMILES: COc1cc2nc(CNS(=O)(=O)c3cccc4ccccc34)nc(N3CCCC3)c2cc1OC [Example 307, N-((6,7-Dimethoxy-4-(pyrrolidin-1-yl)quinazolin-2-yl)methyl)naphthalene-1-sulfonamide]

- EC50 [1, 3]: < 1000 nM
- Selectivity, CB2 vs. CB1 [2]: − (− indicates ≦ 10−fold)
SMILES: O=S(=O)(NCc1nc(N2Cc3ccccc3C2)c2ccccc2n1)c1cccc2ccccc12 [Example 308, N-((4-(isoindolin-2-yl)quinazolin-2-yl)methyl)naphthalene-1-sulfonamide]

- EC50 [1, 3]: < 1000 nM
- Selectivity, CB2 vs. CB1 [2]: + (+ indicates > 10−fold)
SMILES: O=S(=O)(NCc1nc(N2CCCC2)c2ccc(Cl)cc2n1)c1cccc2ccccc12 [Example 309, N-((7-Chloro-4-(pyrrolidin-1-yl)quinazolin-2-yl)methyl)naphthalene-1-sulfonamide]

- EC50 [1, 3]: < 1000 nM
- Selectivity, CB2 vs. CB1 [2]: − (− indicates ≦ 10−fold)
SMILES: COC(=O)c1ccc2nc(-c3ccccc3Cl)nc(N3CCN(C)CC3)c2c1 [Example 310, Methyl 2-(2-chlorophenyl)-4-(4-methylpiperazin-1-yl)quinazoline-6-carboxylate]

- EC50 [1, 3]: < 1000 nM
- Selectivity, CB2 vs. CB1 [2]: + (+ indicates > 10−fold)
SMILES: CCN(CC)C(=O)c1ccc2nc(-c3ccccc3Cl)nc(N3CCN(C)CC3)c2c1 [Example 311, 2-(2-Chlorophenyl)-N,N-diethyl-4-(4-methylpiperazin-1-yl)quinazoline-6-carboxamide]

- EC50 [1, 3]: < 1000 nM
- Selectivity, CB2 vs. CB1 [2]: − (− indicates ≦ 10−fold)
SMILES: CC1CCN(c2nc(-c3ccccc3Cl)nc3ccc(C(=O)NC4CCCCC4)cc23)CC1 [Example 312, 2-(2-Chlorophenyl)-N-cyclohexyl-4-(4-methylpiperidin-1-yl)quinazoline-6-carboxamide]

- EC50 [1, 3]: < 1000 nM
- Selectivity, CB2 vs. CB1 [2]: − (− indicates ≦ 10−fold)
SMILES: COc1ccc(CNC(=O)c2ccc3nc(-c4ccccc4Cl)nc(N4CCC(C)CC4)c3c2)cc1 [Example 313, 2-(2-Chlorophenyl)-N-(4-methoxybenzyl)-4-(4-methylpiperidin-1-yl)quinazoline-6-carboxamide]

- EC50 [1, 3]: < 1000 nM
- Selectivity, CB2 vs. CB1 [2]: + (+ indicates > 10−fold)
SMILES: CCN(CC)C(=O)c1ccc2nc(-c3ccccc3Cl)nc(N3CCN(C(C)=O)CC3)c2c1 [Example 316, 4-(4-Acetylpiperazin-1-yl)-2-(2-chlorophenyl)-N,N-diethylquinazoline-6-carboxamide]
